Source: ChEMBL document CHEMBL5291721, “A preclinical secondary pharmacology resource illuminates target-adverse drug reaction associations of marketed drugs” (Nat Commun, 2023)

Columns and labels:
[1] = biological target: T1, Alpha-2A adrenergic receptor (Homo sapiens, UniProt P08913)
T1 sequence (P08913 whole entry): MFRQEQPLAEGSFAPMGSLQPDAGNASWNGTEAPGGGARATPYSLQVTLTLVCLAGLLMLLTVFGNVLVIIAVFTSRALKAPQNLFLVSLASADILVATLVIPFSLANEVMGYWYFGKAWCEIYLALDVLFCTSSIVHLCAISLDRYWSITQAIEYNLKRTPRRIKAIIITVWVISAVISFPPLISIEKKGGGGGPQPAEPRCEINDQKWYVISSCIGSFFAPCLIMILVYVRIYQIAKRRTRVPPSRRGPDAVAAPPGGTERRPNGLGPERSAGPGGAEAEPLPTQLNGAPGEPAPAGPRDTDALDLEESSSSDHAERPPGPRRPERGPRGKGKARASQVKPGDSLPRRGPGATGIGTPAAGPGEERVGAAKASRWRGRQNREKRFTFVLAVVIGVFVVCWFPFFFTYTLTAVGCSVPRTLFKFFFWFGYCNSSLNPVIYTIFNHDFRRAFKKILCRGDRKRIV

[2] = biological target: T2, Muscarinic acetylcholine receptor M1 (Homo sapiens, UniProt P11229); format: functional, cell-based
T2 sequence (P11229 whole entry): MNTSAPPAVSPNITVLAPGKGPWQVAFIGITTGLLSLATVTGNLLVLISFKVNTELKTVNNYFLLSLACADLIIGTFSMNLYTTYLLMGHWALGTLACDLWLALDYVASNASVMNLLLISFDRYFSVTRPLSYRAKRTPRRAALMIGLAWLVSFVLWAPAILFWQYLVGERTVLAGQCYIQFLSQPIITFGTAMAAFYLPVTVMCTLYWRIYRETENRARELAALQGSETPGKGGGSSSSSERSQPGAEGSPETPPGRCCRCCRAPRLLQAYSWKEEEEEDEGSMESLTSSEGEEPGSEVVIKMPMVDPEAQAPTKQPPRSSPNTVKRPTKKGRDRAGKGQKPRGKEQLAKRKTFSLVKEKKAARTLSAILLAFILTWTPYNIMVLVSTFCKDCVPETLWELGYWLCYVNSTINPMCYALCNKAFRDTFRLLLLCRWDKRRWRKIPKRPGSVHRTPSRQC

Prothrombin = Prothrombin (Homo sapiens, UniProt P00734); format: functional
Progesterone receptor = biological target: T3, Progesterone receptor (Homo sapiens, UniProt P06401)
T3 sequence (P06401 whole entry): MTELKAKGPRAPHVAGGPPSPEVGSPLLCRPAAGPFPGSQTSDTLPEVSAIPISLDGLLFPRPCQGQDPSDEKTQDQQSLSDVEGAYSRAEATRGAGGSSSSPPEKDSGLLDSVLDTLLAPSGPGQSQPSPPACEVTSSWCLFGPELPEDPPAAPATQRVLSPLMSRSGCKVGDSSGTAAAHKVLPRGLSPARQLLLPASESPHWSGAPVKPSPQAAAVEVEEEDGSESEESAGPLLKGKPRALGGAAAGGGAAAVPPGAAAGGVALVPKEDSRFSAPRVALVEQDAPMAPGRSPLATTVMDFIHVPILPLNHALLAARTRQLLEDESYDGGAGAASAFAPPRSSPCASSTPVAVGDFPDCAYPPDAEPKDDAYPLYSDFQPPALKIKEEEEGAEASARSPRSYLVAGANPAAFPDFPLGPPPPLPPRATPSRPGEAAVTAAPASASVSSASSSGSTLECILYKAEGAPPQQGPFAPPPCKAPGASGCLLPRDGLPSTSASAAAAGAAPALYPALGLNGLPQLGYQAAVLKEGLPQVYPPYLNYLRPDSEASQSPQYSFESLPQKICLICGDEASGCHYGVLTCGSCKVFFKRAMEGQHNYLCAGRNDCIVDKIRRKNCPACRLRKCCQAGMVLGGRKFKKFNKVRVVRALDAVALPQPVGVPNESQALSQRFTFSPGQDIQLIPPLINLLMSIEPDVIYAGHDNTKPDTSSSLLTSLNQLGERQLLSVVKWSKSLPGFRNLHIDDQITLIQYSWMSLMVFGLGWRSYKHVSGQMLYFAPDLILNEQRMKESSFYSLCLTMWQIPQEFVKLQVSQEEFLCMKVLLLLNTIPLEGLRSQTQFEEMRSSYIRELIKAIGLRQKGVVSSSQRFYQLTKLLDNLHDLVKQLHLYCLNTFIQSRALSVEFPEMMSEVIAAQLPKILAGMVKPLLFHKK

[3] = biological target: Prostaglandin G/H synthase 1 (Homo sapiens, UniProt P23219); format: functional
Thromboxane A2 receptor = biological target: T4, Thromboxane A2 receptor (Homo sapiens, UniProt P21731); format: functional, cell-based
T4 sequence (P21731 whole entry): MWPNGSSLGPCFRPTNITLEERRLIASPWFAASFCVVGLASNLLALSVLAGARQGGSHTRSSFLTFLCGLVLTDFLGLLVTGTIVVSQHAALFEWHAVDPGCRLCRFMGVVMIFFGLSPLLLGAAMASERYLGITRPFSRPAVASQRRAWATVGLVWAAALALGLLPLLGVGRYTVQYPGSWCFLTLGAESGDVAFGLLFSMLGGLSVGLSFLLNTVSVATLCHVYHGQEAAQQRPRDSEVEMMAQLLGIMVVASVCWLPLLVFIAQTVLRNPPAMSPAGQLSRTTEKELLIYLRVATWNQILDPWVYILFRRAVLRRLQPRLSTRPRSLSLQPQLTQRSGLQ

Adenosine receptor A3 = biological target: T5, Adenosine receptor A3 (Homo sapiens, UniProt P0DMS8)
T5 sequence (P0DMS8 whole entry): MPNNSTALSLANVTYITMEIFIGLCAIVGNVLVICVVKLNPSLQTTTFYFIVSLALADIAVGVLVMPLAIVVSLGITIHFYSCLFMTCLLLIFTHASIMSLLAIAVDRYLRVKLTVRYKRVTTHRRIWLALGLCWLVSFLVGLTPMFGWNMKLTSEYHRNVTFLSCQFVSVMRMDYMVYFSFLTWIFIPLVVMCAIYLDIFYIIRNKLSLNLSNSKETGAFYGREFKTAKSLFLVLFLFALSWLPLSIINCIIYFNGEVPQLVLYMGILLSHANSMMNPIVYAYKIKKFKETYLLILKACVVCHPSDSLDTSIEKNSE
Further: assay procedure not described here.

Sequence of Prostaglandin G/H synthase 1 (P23219 whole entry): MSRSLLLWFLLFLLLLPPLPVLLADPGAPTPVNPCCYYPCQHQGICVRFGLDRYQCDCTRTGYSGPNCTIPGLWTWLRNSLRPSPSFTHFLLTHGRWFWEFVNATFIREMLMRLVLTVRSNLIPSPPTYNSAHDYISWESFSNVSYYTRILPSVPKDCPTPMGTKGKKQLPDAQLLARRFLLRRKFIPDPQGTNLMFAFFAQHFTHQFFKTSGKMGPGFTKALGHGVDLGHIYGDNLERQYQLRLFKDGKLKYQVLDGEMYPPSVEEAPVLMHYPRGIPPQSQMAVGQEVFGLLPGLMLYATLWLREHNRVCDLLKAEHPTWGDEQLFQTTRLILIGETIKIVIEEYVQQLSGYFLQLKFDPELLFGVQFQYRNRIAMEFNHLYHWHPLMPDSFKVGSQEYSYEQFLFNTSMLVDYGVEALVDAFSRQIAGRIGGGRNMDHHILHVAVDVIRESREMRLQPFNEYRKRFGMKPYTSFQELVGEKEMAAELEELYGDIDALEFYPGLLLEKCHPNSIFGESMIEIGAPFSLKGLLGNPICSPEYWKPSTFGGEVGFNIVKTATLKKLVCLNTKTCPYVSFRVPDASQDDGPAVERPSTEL

SMILES | AC50 [1] [µM] | AC50 [2] [µM] | AC50 (Prothrombin) [µM] | AC50 (Progesterone receptor) [µM] | AC50 [3] [µM] | AC50 (Thromboxane A2 receptor) [µM] | AC50 (Adenosine receptor A3) [µM]
CCC(CC)(CC(=O)Nc1cccc(/C=C/c2nc(C3CCC3)cs2)c1)C(=O)O | > 30 | > 3 | > 30 | > 30 | 26.2 | > 3 | –
CCCCCNC(=N)N/N=C/c1c[nH]c2ccc(OC)cc12 [TEGASEROD] | 0.92 | > 3 | > 30 | > 30 | 20.4 | > 3 | –
O=[N+]([O-])O[C@@H]1CO[C@H]2[C@@H]1OC[C@@H]2O [ISOSORBIDE MONONITRATE] | > 30 | > 30 | > 30 | > 30 | > 30 | > 30 | –
Nc1ccc2cc3ccc(N)cc3nc2c1 [PROFLAVINE] | 7.27 | – | 9.65 | > 30 | 22.1 | – | 10.2
COc1ccc2c(c1)N(C[C@H](C)CN(C)C)c1ccccc1S2 [LEVOMEPROMAZINE] | – | 0.331 | > 30 | > 30 | 11.3 | 26 | > 30
CCCCS(=O)(=O)N[C@@H](Cc1ccc(OCCCCC2CCNCC2)cc1)C(=O)O [TIROFIBAN] | > 30 | > 10 | > 30 | > 30 | > 30 | > 10 | –
Clc1cc(Cl)c(OCC#CI)cc1Cl [HALOPROGIN] | 17.7 | – | > 30 | > 30 | > 30 | > 30 | 0.946
Cc1oc(=O)oc1CN1CCN(c2cc3c(cc2F)c(=O)c(C(=O)O)c2n3C(C)S2)CC1 (stereo unspecified) [PRULIFLOXACIN] | > 30 | – | > 30 | > 30 | > 30 | > 30 | –
CCN1CCCC1CNC(=O)c1cc(S(N)(=O)=O)ccc1OC (stereo unspecified) [SULPIRIDE] | 7.52 | – | > 30 | > 30 | 11.7 | > 30 | > 30
COc1cc2nc(N3CCN(C(=O)c4ccco4)CC3)nc(N)c2cc1OC [PRAZOSIN] | – | – | > 10 | > 30 | > 30 | > 30 | –
COc1ccccc1N1CCN(CC(O)COc2cccc3ccccc23)CC1 (stereo unspecified) [NAFTOPIDIL] | 0.29 | – | > 30 | > 30 | > 30 | > 3 | –
O=c1[nH]c(=O)n(C2CCCO2)cc1F (stereo unspecified) [TEGAFUR] | > 30 | – | > 30 | > 30 | > 30 | > 30 | > 30
COc1cc2c3cc1Oc1cc(ccc1O)C[C@@H]1c4c(cc(OC)c(O)c4Oc4ccc(cc4)C[C@@H]3N(C)CC2)CC[N+]1(C)C [TUBOCURARINE] | > 30 | – | > 30 | > 30 | > 30 | > 30 | > 30
C=CCCCCCCCCC(=O)O [UNDECYLENIC ACID] | > 30 | – | > 30 | > 30 | > 30 | > 30 | –
COC1=C(OC)C(=O)C(C/C=C(\C)CC/C=C(\C)CC/C=C(\C)CC/C=C(\C)CC/C=C(\C)CC/C=C(\C)CC/C=C(\C)CC/C=C(\C)CC/C=C(\C)CCC=C(C)C)=C(C)C1=O [UBIDECARENONE] | > 30 | > 30 | > 30 | > 30 | > 30 | > 30 | –
O=c1[nH]c(=O)n([C@H]2C[C@H](O)[C@@H](CO)O2)cc1F [FLOXURIDINE] | > 30 | – | > 30 | > 30 | > 30 | > 30 | > 30
Nc1nc2nc[nH]c2c(=S)[nH]1 [THIOGUANINE] | > 30 | – | > 30 | > 30 | 0.81 | > 30 | > 30
O=c1[nH]c(=O)n([C@H]2C[C@H](O)[C@@H](CO)O2)cc1I [IDOXURIDINE] | > 30 | – | > 30 | > 30 | > 30 | > 30 | > 30
C=CCN1C[C@H](C(=O)N(CCCN(C)C)C(=O)NCC)C[C@@H]2c3cccc4[nH]cc(c34)C[C@H]21 [CABERGOLINE] | – | > 30 | > 30 | > 30 | > 30 | > 30 | > 30
CCCC1O[C@@H]2C[C@H]3[C@@H]4CCC5=CC(=O)C=C[C@]5(C)[C@H]4[C@@H](O)C[C@]3(C)[C@]2(C(=O)CO)O1 (stereo partly specified) [BUDESONIDE] | > 30 | – | > 30 | – | > 30 | > 30 | > 30
CN1CCN(C2=Nc3ccccc3Sc3ccc(Cl)cc32)CC1 [CLOTHIAPINE] | 3.47 | 0.42 | > 30 | > 30 | > 30 | > 10 | –
CC[C@]1(O)C[C@H]2CN(CCc3c([nH]c4ccccc34)[C@@](C(=O)OC)(c3cc4c(cc3OC)N(C=O)[C@H]3[C@@](O)(C(=O)OC)[C@H](OC(C)=O)[C@]5(CC)C=CCN6CC[C@]43[C@@H]65)C2)C1 [VINCRISTINE] | > 30 | – | > 30 | > 30 | 11.2 | > 30 | > 30
COc1cc([C@@H]2c3cc4c(cc3[C@H](O)[C@H]3COC(=O)[C@H]23)OCO4)cc(OC)c1OC [PODOFILOX] | > 30 | – | > 30 | > 30 | > 30 | > 30 | > 30
Cc1cc(C)c(NC(=O)CN(CC(=O)O)CC(=O)O)c(C)c1Br [MEBROFENIN] | > 30 | – | > 30 | > 30 | > 30 | > 30 | –
CC[C@H]1CN2CCc3cc(OC)c(OC)cc3[C@@H]2C[C@@H]1C[C@H]1NCCc2cc(OC)c(OC)cc21 [EMETINE] | 0.09 | – | > 30 | > 30 | > 30 | > 30 | –
